{
  "source": "patent US11130733B2",
  "about": "“4-OXO-alkylated tetramic acid compound, preparation method and use thereof” (BEIJING JOEKAI BIOTECH. LLC, priority 2017, dated 2021)",
  "key": {"[1]": {"system": "Salmonella typhimurium TA100", "test": "Mini Ames experiment, strain TA100", "type": "cell-based", "experimental": "(§1) Histidine auxotrophic strains of Salmonella typhimurium were cultured in a special medium with quite a low content of histidine. The strains were difficult to divide due to lack of nutrition. If a test compound has mutagenicity, a large number of cells will undergo reverse mutation, synthesizing histidine by themselves and developing into colonies visible to the naked eye. In view of the close relationship between mutagenicity and carcinogenesis of chemicals, this method has been widely used in screening carcinogens. Some chemicals need metabolic activation to induce mutagenicity. Mammalian microsomal enzyme S9 can be added into the test system to eliminate the influence of metabolic activation on generation of mutagenicity.\n(§2) […] Mini Ames test with compound 50561"}, "[2]": {"system": "Salmonella typhimurium TA98", "test": "Mini Ames experiment, strain TA98", "type": "cell-based", "experimental": "as §1, §2"}, "[3]": {"conditions": "TA100, With Metabolic Activation, 1.5 μg per well"}, "[4]": {"conditions": "TA100, With Metabolic Activation, 4 μg per well"}, "[5]": {"conditions": "TA100, With Metabolic Activation, 10 μg per well"}, "[6]": {"conditions": "TA100, With Metabolic Activation, 25 μg per well"}, "[7]": {"conditions": "TA100, With Metabolic Activation, 64 μg per well"}, "[8]": {"conditions": "TA100, With Metabolic Activation, 160 μg per well"}, "[9]": {"conditions": "TA100, With Metabolic Activation, 400 μg per well"}, "[10]": {"conditions": "TA100, With Metabolic Activation, 1000 μg per well"}, "[11]": {"conditions": "TA100, Without Metabolic Activation, 1.5 μg per well"}, "[12]": {"conditions": "TA100, Without Metabolic Activation, 4 μg per well"}, "[13]": {"conditions": "TA100, Without Metabolic Activation, 10 μg per well"}, "[14]": {"conditions": "TA100, Without Metabolic Activation, 25 μg per well"}, "[15]": {"conditions": "TA100, Without Metabolic Activation, 64 μg per well"}, "[16]": {"conditions": "TA100, Without Metabolic Activation, 160 μg per well"}, "[17]": {"conditions": "TA100, Without Metabolic Activation, 400 μg per well"}, "[18]": {"conditions": "TA100, Without Metabolic Activation, 1000 μg per well"}, "[19]": {"conditions": "TA98, With Metabolic Activation, 1.5 μg per well"}, "[20]": {"conditions": "TA98, With Metabolic Activation, 4 μg per well"}, "[21]": {"conditions": "TA98, With Metabolic Activation, 10 μg per well"}, "[22]": {"conditions": "TA98, With Metabolic Activation, 25 μg per well"}, "[23]": {"conditions": "TA98, With Metabolic Activation, 64 μg per well"}, "[24]": {"conditions": "TA98, With Metabolic Activation, 160 μg per well"}, "[25]": {"conditions": "TA98, With Metabolic Activation, 400 μg per well"}, "[26]": {"conditions": "TA98, With Metabolic Activation, 1000 μg per well"}, "[27]": {"conditions": "TA98, Without Metabolic Activation, 1.5 μg per well"}, "[28]": {"conditions": "TA98, Without Metabolic Activation, 4 μg per well"}, "[29]": {"conditions": "TA98, Without Metabolic Activation, 10 μg per well"}, "[30]": {"conditions": "TA98, Without Metabolic Activation, 25 μg per well"}, "[31]": {"conditions": "TA98, Without Metabolic Activation, 64 μg per well"}, "[32]": {"conditions": "TA98, Without Metabolic Activation, 160 μg per well"}, "[33]": {"conditions": "TA98, Without Metabolic Activation, 400 μg per well"}, "[34]": {"conditions": "TA98, Without Metabolic Activation, 1000 μg per well"}},
  "data": [
    {"smiles": "O=C1C=C(OCc2ccc(F)cc2)[C@H](Cc2ccccc2)N1", "note": "[Compound 50561]", "values": [
      {"measurement": "Mean Revertants Per Well", "setting": "[1]; [3]", "value": 25.33},
      {"measurement": "Ratio Treated/Solvent", "setting": "[1]; [3]", "value": 0.78},
      {"measurement": "Mean Revertants Per Well", "setting": "[1]; [4]", "value": 30.33},
      {"measurement": "Ratio Treated/Solvent", "setting": "[1]; [4]", "value": 0.93},
      {"measurement": "Mean Revertants Per Well", "setting": "[1]; [5]", "value": 32.33},
      {"measurement": "Ratio Treated/Solvent", "setting": "[1]; [5]", "value": 0.99},
      {"measurement": "Mean Revertants Per Well", "setting": "[1]; [6]", "value": 28.67},
      {"measurement": "Ratio Treated/Solvent", "setting": "[1]; [6]", "value": 0.88},
      {"measurement": "Mean Revertants Per Well", "setting": "[1]; [7]", "value": 31.00},
      {"measurement": "Ratio Treated/Solvent", "setting": "[1]; [7]", "value": 0.95},
      {"measurement": "Mean Revertants Per Well", "setting": "[1]; [8]", "value": 28.33},
      {"measurement": "Ratio Treated/Solvent", "setting": "[1]; [8]", "value": 0.87},
      {"measurement": "Mean Revertants Per Well", "setting": "[1]; [9]", "value": 0.00},
      {"measurement": "Ratio Treated/Solvent", "setting": "[1]; [9]", "value": 0.00},
      {"measurement": "Mean Revertants Per Well", "setting": "[1]; [10]", "value": 0.00},
      {"measurement": "Ratio Treated/Solvent", "setting": "[1]; [10]", "value": 0.00},
      {"measurement": "Mean Revertants Per Well", "setting": "[1]; [11]", "value": 25.67},
      {"measurement": "Ratio Treated/Solvent", "setting": "[1]; [11]", "value": 1.04},
      {"measurement": "Mean Revertants Per Well", "setting": "[1]; [12]", "value": 25.33},
      {"measurement": "Ratio Treated/Solvent", "setting": "[1]; [12]", "value": 1.03},
      {"measurement": "Mean Revertants Per Well", "setting": "[1]; [13]", "value": 28.67},
      {"measurement": "Ratio Treated/Solvent", "setting": "[1]; [13]", "value": 1.16},
      {"measurement": "Mean Revertants Per Well", "setting": "[1]; [14]", "value": 19.00},
      {"measurement": "Ratio Treated/Solvent", "setting": "[1]; [14]", "value": 0.77},
      {"measurement": "Mean Revertants Per Well", "setting": "[1]; [15]", "value": 23.33},
      {"measurement": "Ratio Treated/Solvent", "setting": "[1]; [15]", "value": 0.95},
      {"measurement": "Mean Revertants Per Well", "setting": "[1]; [16]", "value": 17.33},
      {"measurement": "Ratio Treated/Solvent", "setting": "[1]; [16]", "value": 0.70},
      {"measurement": "Mean Revertants Per Well", "setting": "[1]; [17]", "value": 0.00},
      {"measurement": "Ratio Treated/Solvent", "setting": "[1]; [17]", "value": 0.00},
      {"measurement": "Mean Revertants Per Well", "setting": "[1]; [18]", "value": 0.00},
      {"measurement": "Ratio Treated/Solvent", "setting": "[1]; [18]", "value": 0.00},
      {"measurement": "mutagenicity", "setting": "[1]; TA100, presence or absence of S9", "value": "no obvious mutagenicity"},
      {"measurement": "Mean Revertants Per Well", "setting": "[2]; [19]", "value": 8.67},
      {"measurement": "Ratio Treated/Solvent", "setting": "[2]; [19]", "value": 1.04},
      {"measurement": "Mean Revertants Per Well", "setting": "[2]; [20]", "value": 13.33},
      {"measurement": "Ratio Treated/Solvent", "setting": "[2]; [20]", "value": 1.60},
      {"measurement": "Mean Revertants Per Well", "setting": "[2]; [21]", "value": 9.33},
      {"measurement": "Ratio Treated/Solvent", "setting": "[2]; [21]", "value": 1.12},
      {"measurement": "Mean Revertants Per Well", "setting": "[2]; [22]", "value": 12.67},
      {"measurement": "Ratio Treated/Solvent", "setting": "[2]; [22]", "value": 1.52},
      {"measurement": "Mean Revertants Per Well", "setting": "[2]; [23]", "value": 12.33},
      {"measurement": "Ratio Treated/Solvent", "setting": "[2]; [23]", "value": 1.48},
      {"measurement": "Mean Revertants Per Well", "setting": "[2]; [24]", "value": 7.00},
      {"measurement": "Ratio Treated/Solvent", "setting": "[2]; [24]", "value": 0.84},
      {"measurement": "Mean Revertants Per Well", "setting": "[2]; [25]", "value": 0.00},
      {"measurement": "Ratio Treated/Solvent", "setting": "[2]; [25]", "value": 0.00},
      {"measurement": "Mean Revertants Per Well", "setting": "[2]; [26]", "value": 0.00},
      {"measurement": "Ratio Treated/Solvent", "setting": "[2]; [26]", "value": 0.00},
      {"measurement": "Mean Revertants Per Well", "setting": "[2]; [27]", "value": 9.00},
      {"measurement": "Ratio Treated/Solvent", "setting": "[2]; [27]", "value": 1.32},
      {"measurement": "Mean Revertants Per Well", "setting": "[2]; [28]", "value": 8.00},
      {"measurement": "Ratio Treated/Solvent", "setting": "[2]; [28]", "value": 1.17},
      {"measurement": "Mean Revertants Per Well", "setting": "[2]; [29]", "value": 8.00},
      {"measurement": "Ratio Treated/Solvent", "setting": "[2]; [29]", "value": 1.17},
      {"measurement": "Mean Revertants Per Well", "setting": "[2]; [30]", "value": 8.33},
      {"measurement": "Ratio Treated/Solvent", "setting": "[2]; [30]", "value": 1.22},
      {"measurement": "Mean Revertants Per Well", "setting": "[2]; [31]", "value": 7.33},
      {"measurement": "Ratio Treated/Solvent", "setting": "[2]; [31]", "value": 1.07},
      {"measurement": "Mean Revertants Per Well", "setting": "[2]; [32]", "value": 7.33},
      {"measurement": "Ratio Treated/Solvent", "setting": "[2]; [32]", "value": 1.07},
      {"measurement": "Mean Revertants Per Well", "setting": "[2]; [33]", "value": 0.00},
      {"measurement": "Ratio Treated/Solvent", "setting": "[2]; [33]", "value": 0.00},
      {"measurement": "Mean Revertants Per Well", "setting": "[2]; [34]", "value": 0.00},
      {"measurement": "Ratio Treated/Solvent", "setting": "[2]; [34]", "value": "0.00|"},
      {"measurement": "mutagenicity", "setting": "[2]; TA98, presence or absence of S9", "value": "no obvious mutagenicity"}
    ]}
  ]
}
